# Measured values published in article PMC11012124, “Synthesis of Novel Triazine-Based Chalcones and 8,9-dihydro-7H-pyrimido[4,5-b][1,4]diazepines as Potential Leads in the Search of Anticancer, Antibacterial and Antifungal Agents” (International Journal of Molecular Sciences, 2024).
# Tests used:
# NCI-H23 = assay: cells; details: Homo sapiens, NCI-H23, 48 h
# A498 = assay: cells; details: Homo sapiens, A498, 48 h
# SF-295 = assay: cells; details: Homo sapiens, SF-295, 48 h
# TK-10 = assay: cells; details: Homo sapiens, TK-10, 48 h
# DU-145 = assay: cells; details: Homo sapiens, DU-145, 48 h
# NCI-H460 = assay: cells; details: Homo sapiens, NCI-H460, 48 h
# UO-31 = assay: cells; details: Homo sapiens, UO-31, 48 h
# NCI-H522 = assay: cells; details: Homo sapiens, NCI-H522, 48 h
# U251 = assay: cells; details: Homo sapiens, U-251, 48 h
# HL-60(TB) = assay: cells; details: Homo sapiens, HL-60, 48 h
# UACC-257 = assay: cells; details: Homo sapiens, UACC-257, 48 h
# OVCAR-4 = assay: cells; details: Homo sapiens, OVCAR-4, 48 h
# SF-539 = assay: cells; details: Homo sapiens, SF-539, 48 h
# HCT-116 = assay: cells; details: Homo sapiens, HCT-116, 48 h
# SNB-75 = assay: cells; details: Homo sapiens, SNB-75, 48 h
# 786-0 = assay: cells; details: Homo sapiens, 786-0, 48 h
# COLO 205 = assay: cells; details: Homo sapiens, COLO 205, 48 h
# M14 = assay: cells; details: Homo sapiens, M14, 48 h
# OVCAR-5 = assay: cells; details: Homo sapiens, OVCAR-5, 48 h
# MDA-MB-468 = assay: cells; details: Homo sapiens, MDA-MB-468, 48 h
# 60 cancer cell lines = assay: NCI-60 one-dose screen (10 μM); assay type: cell-based; details: Homo sapiens; one dose of 10 μM, mean over 60 cancer cell lines; read-out: Mean Growth Percent (MGP)
# Description: Additionally, the mean of the growth percentages (MGP) of each compound against all the 60 cancer cell lines is also reported, which is used as one of the selection criteria to continue with tests at five concentration doses.
# SK-MEL-2 = assay: cells; details: Homo sapiens, SK-MEL-2, 48 h
# SK-MEL-5 = assay: cells; details: Homo sapiens, SK-MEL-5, 48 h
# HCT-15 = assay: cells; details: Homo sapiens, HCT-15, 48 h
# A549/ATCC = assay: cells; details: Homo sapiens, A549, 48 h
# LOX IMVI = assay: cells; details: Homo sapiens, 48 h
# MDA-MB-231/ATCC = assay: cells; details: Homo sapiens, MDA-MB-231, 48 h
# HT29 = assay: cells; details: Homo sapiens, HT-29, 48 h
# MOLT-4 = assay: cells; details: Homo sapiens, MOLT-4, 48 h
# SK-OV-3 = assay: cells; details: Homo sapiens, SK-OV-3, 48 h
# MCF7 = assay: cells; details: Homo sapiens, MCF7, 48 h
# HOP-92 = assay: cells; details: Homo sapiens, HOP-92, 48 h
# RPMI-8226 = assay: cells; details: Homo sapiens, RPMI-8226, 48 h
# T-47D = assay: cells; details: Homo sapiens, T47D, 48 h
# SN12C = assay: cells; details: Homo sapiens, 48 h
# NCI-H226 = assay: cells; details: Homo sapiens, NCI-H226, 48 h
# KM12 = assay: cells; details: Homo sapiens, KM12, 48 h
smiles,measurement,setting,value
COc1cc(/C=C/C(=O)c2ccc(S(=O)(=O)NCCNc3nc(N(C)C)nc(N4CCOCC4)n3)cc2)cc(OC)c1OC [23d],GI50,NCI-H23,3.09 µM
same,CC50,NCI-H23; read-out: LC50,40.3 µM
same,GI50,A498,14.2 µM
same,CC50,A498; read-out: LC50,52.6 µM
same,GI50,SF-295,3.04 µM
same,CC50,SF-295; read-out: LC50,57.8 µM
same,GI50,TK-10,13.1 µM
same,CC50,TK-10; read-out: LC50,50.8 µM
same,GI50,DU-145,3.31 µM
same,CC50,DU-145; read-out: LC50,34.1 µM
same,GI50,NCI-H460,3.17 µM
same,CC50,NCI-H460; read-out: LC50,59 µM
same,GI50,UO-31,1.57 µM
same,CC50,UO-31; read-out: LC50,6.32 µM
same,GI50,NCI-H522,1.66 µM
same,CC50,NCI-H522; read-out: LC50,6.37 µM
same,GI50,"U251; U251, 48 h",1.54 µM
same,CC50,U251; read-out: LC50,5.54 µM
same,GI50,HL-60(TB),1.97 µM
same,CC50,HL-60(TB); read-out: LC50,> 100 µM
same,GI50,UACC-257,5.86 µM
same,CC50,UACC-257; read-out: LC50,43 µM
same,GI50,OVCAR-4,2.21 µM
same,CC50,OVCAR-4; read-out: LC50,24.8 µM
same,GI50,SF-539,1.81 µM
same,CC50,"SF-539; read-out: LC50, SF-539, 48 h",6.29 µM
same,GI50,HCT-116,1.56 µM
same,CC50,HCT-116; read-out: LC50,5.92 µM
same,GI50,SNB-75,1.56 µM
same,CC50,SNB-75; read-out: LC50,41.6 µM
same,GI50,786-0,1.89 µM
same,CC50,786-0; read-out: LC50,7.18 µM
same,GI50,COLO 205,2.14 µM
same,CC50,COLO 205; read-out: LC50,16.6 µM
same,GI50,M14,2.18 µM
same,CC50,M14; read-out: LC50,26.9 µM
same,GI50,OVCAR-5,2.83 µM
same,CC50,OVCAR-5; read-out: LC50,33.7 µM
same,GI50,MDA-MB-468,1.69 µM
same,CC50,MDA-MB-468; read-out: LC50,6.66 µM
same,activity at 10 µM,60 cancer cell lines,-32.7%
same,GI50,SK-MEL-2,10.7 µM
same,CC50,SK-MEL-2; read-out: LC50,48.9 µM
same,GI50,SK-MEL-5,7.9 µM
same,CC50,SK-MEL-5; read-out: LC50,46.6 µM
same,GI50,HCT-15,1.82 µM
same,CC50,HCT-15; read-out: LC50,8.38 µM
same,GI50,A549/ATCC,3.55 µM
same,CC50,A549/ATCC; read-out: LC50,43.9 µM
same,GI50,LOX IMVI,1.64 µM
same,CC50,"LOX IMVI; read-out: LC50, LOX IMVI, 48 h",5.76 µM
same,GI50,MDA-MB-231/ATCC,2.9 µM
same,CC50,MDA-MB-231/ATCC; read-out: LC50,36.7 µM
same,GI50,HT29,1.72 µM
same,CC50,HT29; read-out: LC50,5.93 µM
same,GI50,MOLT-4,2.23 µM
same,CC50,MOLT-4; read-out: LC50,> 100 µM
same,GI50,SK-OV-3,14.3 µM
same,CC50,SK-OV-3; read-out: LC50,52.7 µM
same,GI50,MCF7,1.64 µM
same,CC50,MCF7; read-out: LC50,9.66 µM
same,GI50,HOP-92,7.27 µM
same,CC50,HOP-92; read-out: LC50,76 µM
same,GI50,RPMI-8226,1.39 µM
same,CC50,RPMI-8226; read-out: LC50,> 100 µM
same,GI50,T-47D,5.74 µM
same,CC50,T-47D; read-out: LC50,71.5 µM
same,GI50,SN12C,2.72 µM
same,CC50,SN12C; read-out: LC50,38.1 µM
same,GI50,NCI-H226,11.4 µM
same,CC50,NCI-H226; read-out: LC50,72.4 µM
same,GI50,KM12,1.7 µM
same,CC50,KM12; read-out: LC50,6.52 µM
